Results published in patent US5521311A, “5-aminoacetylaminosulfonanilide compounds” (Taisho Pharmaceutical Co., Ltd., priority 1993, dated 1996).
Counter-ions that a name gives are not always drawn. Like-named read-outs stand apart in the source and are kept apart here.

Assays:
carrageenin foot edema = assay: Carrageenin foot edema test; type: in vivo, Wister strain rats; details: for inhibition in vivo at 1 mg/kg / inhibition in vivo at 0.5 mg/kg: Rattus norvegicus, po, 3 h, read-out: Edema Inhibition rate; for inhibition in vivo at 0.5 mg/kg: *: dose of 0.5 mg/kg, orally
Method: Experiment 1 [Carrageenin foot edema test]
A carrageenin foot edema test was carried out according to the method of Winter et al [Proc. Soc. Exp. Biol. Med., vol. 111, page 544 (1962)].
Six Wister strain rats (for each group) were administered orally with the test drugs [the compounds (a) to (n) of the present invention] and the control drug (indomethacin), each suspended in 5% aqueous gum arabic solution in an amount of 1 ml per 100 g of body weight. An hour later, 0.1 ml of 1% carrageenin was administered subcutaneously into the left hind foot pad. Three hours after the administration of carrageenin, the volume of the foot was determined, and the edema inhibition rate (%) was calculated for the anti-inflammatory effect.
Doses of the test drugs (a) to (l) and the control drug (indomethacin) were each 1 mg/kg, and doses of test drugs (m) and (n) were each 0.5 mg/kg.

adjuvant arthritis = assay: Adjuvant arthritis (therapy) test; type: in vivo, Lewis strain rats; details: foot volume on the day after final administration
Method: Experiment 2 [Adjuvant arthritis (therapy) test]
An adjuvant arthritis (therapy) test was carried out according to the method of Winder et al [Arthritis Rheum., vol. 12, page 472 (1969)].
Seven Lewis strain rats (for each group) were administered subcutaneously 0.7% Mycobacterium tuberculosis suspended in liquid paraffin into the left hind foot pad to induce adjuvant arthritis. 15 to 18 Days after the administration of adjuvant, rats with fully developed arthritis were administered orally with test drugs [the compound (a), (b), (i), (j), (k) and (m) of the present invention]and the control drug (indomethacin), each suspended in 5% aqueous gum arabic solution in an amount of 1 ml per 100 g of body weight once a day for 4 days.
On the day after the final administration, the volume of the foot was determined, and the edema inhibition rate (%) was calculated for the therapeutical effect. Doses of the test drugs were each 0.5 mg/kg, and dose of the control drug (indomethacin) was 1.0 mg/kg.

[1] = test system: adjuvant arthritis pain (squeaking response); assay: Adjuvant arthritis (pain) test; type: in vivo, Lewis strain rats; details: squeaking response over 5 hours after oral administration
[2] = 1 mg/kg orally, 1 hour before 1% carrageenin, foot volume 3 hours after carrageenin
[3] = 1 hour before 1% carrageenin, foot volume 3 hours after carrageenin
[4] = test drugs 0.5 mg/kg orally once a day for 4 days

C=CCNCC(=O)Nc1cc(NS(C)(=O)=O)c(Oc2ccccc2)cc1[N+](=O)[O-] [Example 9]
inhibition in vivo at 1 mg/kg (carrageenin foot edema; [2]): 31.9%

CCCNCC(=O)Nc1cc(NS(C)(=O)=O)c(Oc2ccccc2)cc1[N+](=O)[O-] [Example 24, N-[4-nitro-5-(n-propylaminoacetylamino)-2-phenoxyphenyl]methanesulfonamidehydrochloride]
inhibition in vivo at 0.5 mg/kg (carrageenin foot edema; [3]): 22.4% | Edema Inhibition rate (adjuvant arthritis; test drugs 0.5 mg/kg orally once a day for 4 days, listed as m): 53.0% | Inhibition rate ([1]; test drugs each 1.0 mg/kg, listed as m): 52.1%

CS(=O)(=O)Nc1ccc([N+](=O)[O-])cc1Oc1ccccc1 [Control drug, N-(4-nitro-2-phenoxyphenyl)methanesulfonamide, reference compound]
Inhibition rate ([1]; control drug, dose not separately stated): 19.4%

CS(=O)(=O)Nc1cc(NC(=O)CN)c([N+](=O)[O-])cc1Oc1ccccc1 [Example 25, N-(5-aminoacetylamino-4-nitro-2-phenoxyphenyl)methanesulfonamide hydrochloride]
inhibition in vivo at 0.5 mg/kg (carrageenin foot edema; [3]): 27.9%

COc1ccc2c(c1)c(CC(=O)O)c(C)n2C(=O)c1ccc(Cl)cc1 [indomethacin, reference compound]
inhibition in vivo at 1 mg/kg (carrageenin foot edema): 21.4% | Edema Inhibition rate (adjuvant arthritis; control drug 1.0 mg/kg orally once a day for 4 days): 39.5%

CS(=O)(=O)Nc1cc(NC(=O)CNCc2ccccc2)c([N+](=O)[O-])cc1Oc1ccccc1 [Example 10]
inhibition in vivo at 1 mg/kg (carrageenin foot edema; [2]): 35.8%

CCCCNCC(=O)Nc1cc(NS(C)(=O)=O)c(Oc2ccccc2)cc1[N+](=O)[O-].Cl [Example 23, N-[5-(n-butylaminoacetylamino)-4-nitro-2-phenoxyphenyl]methanesulfonamide hydrochloride]
Edema Inhibition rate (carrageenin foot edema; [2]): 25.1%

CCCCNCC(=O)Nc1cc(NS(C)(=O)=O)c(Oc2ccccc2)cc1[N+](=O)[O-] [Example 1, N-[5-(n-butylaminoacetylamino)4-nitro-2-phenoxyphenyl]methanesulfonamide]
inhibition in vivo at 1 mg/kg (carrageenin foot edema; [2]): 34.6% | Edema Inhibition rate (adjuvant arthritis; [4]): 61.1% | Inhibition rate ([1]; test drugs each 1.0 mg/kg): 50.6%

CCCNCC(=O)Nc1cc(NS(C)(=O)=O)c(Oc2ccccc2)cc1[N+](=O)[O-] [Example 2, N-[4-nitro-5-(n-propylaminoacetylamino)-2-phenoxyphenyl]methanesulfonamide]
inhibition in vivo at 1 mg/kg (carrageenin foot edema; [2]): 30.2% | Edema Inhibition rate (adjuvant arthritis; test drugs 0.5 mg/kg orally once a day for 4 days, listed as b): 54.4% | Inhibition rate ([1]; test drugs each 1.0 mg/kg, listed as b): 47.5%

CCNCC(=O)Nc1cc(NS(C)(=O)=O)c(Oc2ccccc2)cc1[N+](=O)[O-] [Example 21, N-(5-ethylaminoacetylamino-4-nitro-2-phenoxyphenyl)methanesulfonamide]
inhibition in vivo at 1 mg/kg (carrageenin foot edema; [2]): 39.9% | Edema Inhibition rate (adjuvant arthritis; [4]): 54.2%

CNCC(=O)Nc1cc(NS(C)(=O)=O)c(Oc2ccccc2)cc1[N+](=O)[O-] [Example 20, N-(5-methylaminoacetylamino-4-nitro-2-phenoxyphenyl)methanesulfonamide]
inhibition in vivo at 1 mg/kg (carrageenin foot edema; [2]): 41.8% | Edema Inhibition rate (adjuvant arthritis; [4]): 53.0%

CS(=O)(=O)Nc1cc(NC(=O)CNC2CCCCC2)c([N+](=O)[O-])cc1Oc1ccccc1 [Example 8]
inhibition in vivo at 1 mg/kg (carrageenin foot edema; [2]): 32.7%

CS(=O)(=O)Nc1cc(NC(=O)CNC2CCCC2)c([N+](=O)[O-])cc1Oc1ccccc1 [Example 7]
inhibition in vivo at 1 mg/kg (carrageenin foot edema; [2]): 27.8%

N-[2-Cyclohexyloxy-5-(n-propylaminoacetylamino)phenyl]methanesulfonamide [Example 18]
Edema Inhibition rate (carrageenin foot edema; [2]): 36.0%

CS(=O)(=O)Nc1cc(NC(=O)CN)c([N+](=O)[O-])cc1Oc1ccccc1 [Example 22, N-(5-aminoacetylamino-4-nitro-2-phenoxyphenyl)methanesulfonamide]
inhibition in vivo at 1 mg/kg (carrageenin foot edema; [2]): 46.6% | Edema Inhibition rate (adjuvant arthritis; [4]): 52.9% | Inhibition rate ([1]; test drugs each 1.0 mg/kg): 41.9%

CS(=O)(=O)Nc1cc(NC(=O)CNC2CC2)c([N+](=O)[O-])cc1Oc1ccccc1 [Example 5]
inhibition in vivo at 1 mg/kg (carrageenin foot edema; [2]): 31.4%
